For the experiment, the target named is T1, Cholesteryl ester transfer protein (Homo sapiens, UniProt P11597).
T1 sequence (P11597 whole entry): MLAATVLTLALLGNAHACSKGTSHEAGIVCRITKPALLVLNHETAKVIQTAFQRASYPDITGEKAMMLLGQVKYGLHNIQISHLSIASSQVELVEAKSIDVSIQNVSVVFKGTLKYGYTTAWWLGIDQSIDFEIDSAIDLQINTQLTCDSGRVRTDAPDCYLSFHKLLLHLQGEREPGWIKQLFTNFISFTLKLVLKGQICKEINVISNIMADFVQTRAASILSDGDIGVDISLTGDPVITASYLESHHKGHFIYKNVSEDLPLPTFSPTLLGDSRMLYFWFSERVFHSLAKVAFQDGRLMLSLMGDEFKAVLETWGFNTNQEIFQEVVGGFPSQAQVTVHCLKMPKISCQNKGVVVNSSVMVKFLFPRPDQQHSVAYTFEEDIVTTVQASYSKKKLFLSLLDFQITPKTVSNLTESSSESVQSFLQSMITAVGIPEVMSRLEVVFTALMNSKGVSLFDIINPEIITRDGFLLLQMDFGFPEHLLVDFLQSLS
Description: Inhibition of recombinant full length human CETP expressed in CHO cells assessed as reduction in BODIPY-CE transfer measured after 1 to 3 hrs by fluorescence assay. It is filed as cell-based.

The term IC50 denotes the concentration at which inhibition is half-maximal.

Where only a bound is given, the exact number is not on record here.

Take `CCOC(=O)N1c2ccc(C(F)(F)F)cc2[C@@H](NC(=O)CC(=O)O[C@H]2CC[C@]3(C)[C@H]4CC=C5[C@@H]6[C@@H](C)[C@H](C)CC[C@]6(C(=O)O)CC[C@@]5(C)[C@]4(C)CC[C@H]3C2(C)C)C[C@H]1CC`: the IC50 was 4.42 µM. As for `CCOC(=O)N1c2ccc(C(F)(F)F)cc2[C@@H](NC(=O)CC(=O)O[C@H]2CC[C@]3(C)[C@H]4CC=C5[C@@H]6CC(C)(C)CC[C@]6(C(=O)O)CC[C@@]5(C)[C@]4(C)CC[C@H]3C2(C)C)C[C@H]1CC`, the figure is more than 50 µM; as for `CCOC(=O)N1c2ccc(C(F)(F)F)cc2[C@@H](NC(=O)CCCC(=O)O[C@H]2CC[C@]3(C)[C@H]4CC=C5[C@@H]6CC(C)(C)CC[C@]6(C(=O)O)CC[C@@]5(C)[C@]4(C)CC[C@H]3C2(C)C)C[C@H]1CC`, more than 50 µM; as for `CCOC(=O)N1c2ccc(C(F)(F)F)cc2[C@@H](NC(=O)CCC(=O)O[C@H]2CC[C@]3(C)[C@H]4CC=C5[C@@H]6[C@@H](C)[C@H](C)CC[C@]6(C(=O)O)CC[C@@]5(C)[C@]4(C)CC[C@H]3C2(C)C)C[C@H]1CC`, 0.28 µM. To `CCOC(=O)N1c2ccc(C(F)(F)F)cc2[C@@H](NC(=O)CCCC(=O)O[C@H]2CC[C@]3(C)[C@H]4CC=C5[C@@H]6[C@@H](C)[C@H](C)CC[C@]6(C(=O)O)CC[C@@]5(C)[C@]4(C)CC[C@H]3C2(C)C)C[C@H]1CC` belongs 3.79 µM; to `CCOC(=O)N1c2ccc(C(F)(F)F)cc2[C@@H](NC(=O)CCC(=O)O[C@H]2CC[C@]3(C)[C@H]4CC=C5[C@@H]6CC(C)(C)CC[C@]6(C(=O)O)CC[C@@]5(C)[C@]4(C)CC[C@H]3C2(C)C)C[C@H]1CC`, more than 50 µM.

Source of the values: ChEMBL document CHEMBL4002550, “Fragment-based discovery of novel pentacyclic triterpenoid derivatives as cholesteryl ester transfer protein inhibitors” (Eur J Med Chem, 2017).
